Test results: US20080045467A1, “Composition Containing Ginsenoside F1 Or Compound K For Skin External Application” (Amorepacific Corporation, priority 2004, published 2008)

How the values were obtained:
MMP-2 = experiment: Inhibition of biosynthesis of MMP-2 in UVB-irradiated human keratinocyte (gelatin zymography); type: cell-based; details: 30 mJ/cm^2 UVB, 2 days, amount relative to control group = 100
Procedure: (§1) Human keratinocyte was cultured with a concentration of 10^4 cells/well in 24-well plate mediums, and 24 hours later they were irradiated with 30 mJ/cm^2 of UVB. Each medium was then exchanged with a new one containing the compound separated in either Example 1 or 2 at the densities of 0.1 ppm, 1 ppm or 10 ppm, respectively. After 2 days of cultivation, the supernatants were obtained and gelatin zymography was performed on the obtained supernatant to form MMP-2 and MMP-9. The amount of MMP-2 and MMP-9 thus formed was determined by densitometer for each medium, and was compared with the amount of MMP-2 and MMP-9 in the control group, which was set as 100 (The mediums not containing the compounds in Examples 1 and 2 were cultured as a control group).

MMP-9 = experiment: Inhibition of biosynthesis of MMP-9 in UVB-irradiated human keratinocyte (gelatin zymography); type: cell-based; details: 30 mJ/cm^2 UVB, 2 days, amount relative to control group = 100
Procedure: as §1

Type IV collagen = experiment: Biosynthesis of Type IV collagen in human keratinocyte (Dot Blot); type: cell-based; details: 24 hours, control = 100
Procedure: (§2) Human keratinocyte was cultured with a concentration of 5×10^4 cells/well in 24-well plate mediums, and each medium was exchanged with a new one containing the compound separated in either example 1 or 2 at the densities of 0.1 ppm, 1 ppm or 10 ppm. After 24 hours of cultivation, the supernatants were harvested and the amount of Type IV collagen was quantified using Dot Blot method.

Type VII collagen = experiment: Biosynthesis of Type VII collagen in human fibroblast (Dot Blot); type: cell-based; details: 24 hours, control group = 100
Procedure: as §2, with “fibroblast” for “keratinocyte”, “10^4” for “5×10^4”, “Example” for “either example”, “VII” for “IV”

laminin 10/11 = experiment: Biosynthesis of laminin 10/11 in human keratinocyte (Dot Blot); type: cell-based; details: 24 hours, control group = 100
Procedure: as §2, with “Example” for “example”, “laminin 10/11” for “Type IV collagen”

[1] = system: epidermal-dermal junction; experiment: Change in epidermal-dermal junction of UV-irradiated nude mouse (electron microscope); type: in vivo; details: applied while irradiating with UV light, compared to comparative formulation 1
Procedure: In order to verify the change to the epidermal-dermal junction irradiated with UV light by the composition of the present invention, external applications with the formulation of nutrition cream were prepared according to the ratios in Table 5.
Each of the formulations 1˜3 and the comparative formulation 1 were applied to the back of each nude mouse 5 times in a week for 2 weeks, and for 12 weeks thereafter each of the formulations 1˜3 and the comparative formulation 1 were applied 5 times per week while irradiating UV light 3 times. After biopsy, the change of the epidermal-dermal junction was determined by electron microscope.

SMILES	MMP-2 (%) (MMP-2; 0.1 ppm)	MMP-2 (%) (MMP-2; 1 ppm)	MMP-2 (%) (MMP-2; 10 ppm)	MMP-9 (%) (MMP-9; 0.1 ppm)	MMP-9 (%) (MMP-9; 1 ppm)	MMP-9 (%) (MMP-9; 10 ppm)	Biosynthesis of Type IV collagen (%) (Type IV collagen; 0.1 ppm)	Biosynthesis of Type IV collagen (%) (Type IV collagen; 1 ppm)	Biosynthesis of Type IV collagen (%) (Type IV collagen; 10 ppm)	Biosynthesis of Type VII collagen (%) (Type VII collagen; 0.1 ppm)	Biosynthesis of Type VII collagen (%) (Type VII collagen; 1 ppm)	Biosynthesis of Type VII collagen (%) (Type VII collagen; 10 ppm)	Biosynthesis of laminin 10/11 (%) (laminin 10/11; 0.1 ppm)	Biosynthesis of laminin 10/11 (%) (laminin 10/11; 1 ppm)	Biosynthesis of laminin 10/11 (%) (laminin 10/11; 10 ppm)	change, separation or multiplexing of the epidermal-dermal junction [1]
CC(C)=CCC[C@](C)(O[C@@H]1O[C@H](CO)[C@@H](O)[C@H](O)[C@H]1O)[C@H]1CC[C@]2(C)[C@@H]1[C@H](O)C[C@@H]1[C@@]3(C)CC[C@H](O)C(C)(C)[C@@H]3CC[C@]12C [Example 2, 20-O-β-D-glucopyranosyl-20(S)-protopanaxadiol]	79	61	48	78	62	49	119	128	139	120	135	146	115	125	137	little change, separation or multiplexing
CC(C)=CCC[C@](C)(O[C@@H]1O[C@H](CO)[C@@H](O)[C@H](O)[C@H]1O)[C@H]1CC[C@]2(C)[C@@H]1[C@H](O)C[C@@H]1[C@@]3(C)CC[C@H](O)C(C)(C)[C@@H]3[C@@H](O)C[C@]12C [Example 1, 20-O-β-D-glucopyranosyl-20(S)-protopanaxatriol]	82	67	51	85	69	55	116	129	134	118	132	141	112	125	134	little change, separation or multiplexing
